Experimental data reported in publication PMC5218480 (PLoS ONE, 2017).

Tested on: MV-4-11 cells
Assay: Gene expression microarray analysis (Affymetrix PrimeView) and GSEA
Assay type: cell-based, human
Set-up: RFU PODN (11730768_x_at) / Fold change /veh PODN (11730768_x_at) / RFU LINC00158 (11744669_a_at) / Fold change /veh LINC00158 (11744669_a_at) / RFU DUSP10 (11751237_a_at) / Fold change /veh DUSP10 (11751237_a_at) / RFU ID3 (11757404_x_at) / Fold change /veh ID3 (11757404_x_at) / RFU PLEKHG5 (11737974_s_at) / Fold change /veh PLEKHG5 (11737974_s_at) / RFU LRRC4B (11730491_at) / Fold change /veh LRRC4B (11730491_at) / RFU GIMAP4 (11747438_a_at) / Fold change /veh GIMAP4 (11747438_a_at) / RFU KRT8 (11758183_x_at) / Fold change /veh KRT8 (11758183_x_at) / RFU CNN1 (11734310_a_at) / Fold change /veh CNN1 (11734310_a_at) / RFU VPS37D (11726825_at) / Fold change /veh VPS37D (11726825_at) / RFU C10orf10 (11716522_x_at) / Fold change /veh C10orf10 (11716522_x_at) / RFU KIR2DL2 /// KIR2DL4 /// KIR2DL5A /// KIR2DL5B /// KIR2DS1 /// KIR2DS2 /// KIR2DS3 /// KIR2DS4 /// KIR3DL3 /// KIR3DL3 /// KIR3DS1 (11738374_at) / Fold change /veh KIR2DL2 /// KIR2DL4 /// KIR2DL5A /// KIR2DL5B /// KIR2DS1 /// KIR2DS2 /// KIR2DS3 /// KIR2DS4 /// KIR3DL3 /// KIR3DL3 /// KIR3DS1 (11738374_at) / RFU C1QL1 (11718748_at) / Fold change /veh C1QL1 (11718748_at) / RFU TMPRSS4 (11747572_a_at) / Fold change /veh TMPRSS4 (11747572_a_at) / RFU HAMP (11756126_x_at) / Fold change /veh HAMP (11756126_x_at) / RFU RNFT2 (11725882_a_at) / Fold change /veh RNFT2 (11725882_a_at) / RFU NR4A2 (11747474_a_at) / Fold change /veh NR4A2 (11747474_a_at) / RFU ABCC12 (11746883_a_at) / Fold change /veh ABCC12 (11746883_a_at) / RFU TMEM136 (11760407_x_at) / Fold change /veh TMEM136 (11760407_x_at) / RFU CLDN22 /// WWC2 (11732394_at) / Fold change /veh CLDN22 /// WWC2 (11732394_at) / RFU HLA-DPB1 (11760878_x_at) / Fold change /veh HLA-DPB1 (11760878_x_at) / RFU SPINT1 (11716480_a_at) / Fold change /veh SPINT1 (11716480_a_at) / RFU GAP43 (11754022_s_at) / Fold change /veh GAP43 (11754022_s_at) / RFU A4GNT (11735810_at) / Fold change /veh A4GNT (11735810_at) / RFU PRB3 (11715151_x_at) / Fold change /veh PRB3 (11715151_x_at) / RFU TUBB4B (11761932_at) / Fold change /veh TUBB4B (11761932_at) / RFU CAPN14 (11732068_a_at) / Fold change /veh CAPN14 (11732068_a_at) / RFU TMCC2 (11721928_a_at) / Fold change /veh TMCC2 (11721928_a_at) / RFU IRGQ (11745062_a_at) / Fold change /veh IRGQ (11745062_a_at) / RFU FAM174B (11720279_a_at) / Fold change /veh FAM174B (11720279_a_at) / RFU TMPRSS4 (11748680_a_at) / Fold change /veh TMPRSS4 (11748680_a_at) / RFU FAM212B (11763350_a_at) / Fold change /veh FAM212B (11763350_a_at) / RFU PLEKHG5 (11743358_a_at) / Fold change /veh PLEKHG5 (11743358_a_at) / RFU ZSCAN30 (11745921_a_at) / Fold change /veh ZSCAN30 (11745921_a_at) / RFU CMKLR1 (11741424_a_at) / Fold change /veh CMKLR1 (11741424_a_at) / RFU LOC101060620 /// MAPK8IP1 (11723275_at) / Fold change /veh LOC101060620 /// MAPK8IP1 (11723275_at) / RFU SPTSSB (11747773_x_at) / Fold change /veh SPTSSB (11747773_x_at) / RFU PRSS12 (11739890_at) / Fold change /veh PRSS12 (11739890_at) / RFU BIN1 (11741810_x_at) / Fold change /veh BIN1 (11741810_x_at) / RFU WNT11 (11732464_a_at) / Fold change /veh WNT11 (11732464_a_at) / RFU C10orf10 (11716521_a_at) / Fold change /veh C10orf10 (11716521_a_at) / RFU C5orf56 (11738089_at) / Fold change /veh C5orf56 (11738089_at) / RFU CYB561 (11721691_x_at) / Fold change /veh CYB561 (11721691_x_at) / RFU ANKRD19P (11752326_a_at) / Fold change /veh ANKRD19P (11752326_a_at) / RFU OR2T12 /// OR2T33 /// OR2T8 (11738714_s_at) / Fold change /veh OR2T12 /// OR2T33 /// OR2T8 (11738714_s_at) / RFU VCAN (11748164_a_at) / Fold change /veh VCAN (11748164_a_at) / RFU JSRP1 (11732532_at) / Fold change /veh JSRP1 (11732532_at) / RFU KRTAP10-11 (11738290_x_at) / Fold change /veh KRTAP10-11 (11738290_x_at) / RFU MYO3A (11730013_a_at) / Fold change /veh MYO3A (11730013_a_at) / RFU EBF3 (11725865_a_at) / Fold change /veh EBF3 (11725865_a_at) / RFU CAMK2N1 (11719241_x_at) / Fold change /veh CAMK2N1 (11719241_x_at) / RFU C5orf56 (11738088_a_at) / Fold change /veh C5orf56 (11738088_a_at) / RFU OLFML3 (11715873_a_at) / Fold change /veh OLFML3 (11715873_a_at) / RFU LOC100653217 /// NTM (11731650_a_at) / Fold change /veh LOC100653217 /// NTM (11731650_a_at) / RFU MAPK11 (11762145_a_at) / Fold change /veh MAPK11 (11762145_a_at) / RFU FIZ1 (11724087_x_at) / Fold change /veh FIZ1 (11724087_x_at) / RFU OASL (11726364_x_at) / Fold change /veh OASL (11726364_x_at) / RFU SOX15 (11748057_x_at) / Fold change /veh SOX15 (11748057_x_at) / RFU CD79A (11719716_a_at) / Fold change /veh CD79A (11719716_a_at) / RFU HIST1H1D (11736915_at) / Fold change /veh HIST1H1D (11736915_at) / RFU CASKIN2 (11723855_a_at) / Fold change /veh CASKIN2 (11723855_a_at) / RFU LOC730098 (11760151_x_at) / Fold change /veh LOC730098 (11760151_x_at) / RFU OR4N2 (11742367_at) / Fold change /veh OR4N2 (11742367_at) / RFU PRRT2 (11749266_a_at) / Fold change /veh PRRT2 (11749266_a_at) / RFU SNX32 (11753110_a_at) / Fold change /veh SNX32 (11753110_a_at) / RFU CDHR5 (11726645_a_at) / Fold change /veh CDHR5 (11726645_a_at) / RFU RCAN1 (11760418_a_at) / Fold change /veh RCAN1 (11760418_a_at) / RFU FAM167A (11723789_a_at) / Fold change /veh FAM167A (11723789_a_at) / RFU FAM26E (11764081_at) / Fold change /veh FAM26E (11764081_at) / RFU ISYNA1 (11749810_s_at) / Fold change /veh ISYNA1 (11749810_s_at) / RFU ACY1 (11761880_at) / Fold change /veh ACY1 (11761880_at) / RFU 11764098_at / Fold change /veh 11764098_at / RFU SAMD14 (11745864_x_at) / Fold change /veh SAMD14 (11745864_x_at) / RFU NPB (11741838_a_at) / Fold change /veh NPB (11741838_a_at) / RFU TMPRSS6 (11731388_a_at) / Fold change /veh TMPRSS6 (11731388_a_at) / RFU KRTAP10-2 (11738614_at) / Fold change /veh KRTAP10-2 (11738614_at) / RFU ARHGAP8 /// PRR5-ARHGAP8 (11727945_x_at) / Fold change /veh ARHGAP8 /// PRR5-ARHGAP8 (11727945_x_at) / RFU KRTAP5-7 /// NADSYN1 (11734609_at) / Fold change /veh KRTAP5-7 /// NADSYN1 (11734609_at) / RFU RASL12 (11751679_a_at) / Fold change /veh RASL12 (11751679_a_at) / RFU CDKN2B (11736163_a_at) / Fold change /veh CDKN2B (11736163_a_at) / RFU PRF1 (11729649_at) / Fold change /veh PRF1 (11729649_at) / RFU, ZNF638 /// ZNF638-IT1 / Fold change vs veh, ZNF638 /// ZNF638-IT1 / RFU, PANK3 / Fold change vs veh, PANK3 / RFU, SH3YL1 / Fold change vs veh, SH3YL1 / RFU, ZEB2 / Fold change vs veh, ZEB2 / RFU, NRIP1 / Fold change vs veh, NRIP1 / RFU, PTTG1IP / Fold change vs veh, PTTG1IP / RFU, CAPN2 / Fold change vs veh, CAPN2 / RFU, MED14 / Fold change vs veh, MED14 / RFU, SNORA58 / Fold change vs veh, SNORA58 / RFU, C1orf63 / Fold change vs veh, C1orf63 / RFU, LRRFIP1 / Fold change vs veh, LRRFIP1 / RFU, NDUFAF7 / Fold change vs veh, NDUFAF7 / RFU, SLC12A2 / Fold change vs veh, SLC12A2 / RFU, IBTK / Fold change vs veh, IBTK / RFU, ESF1 / Fold change vs veh, ESF1 / Fold change vs veh, TMEM50B / RFU, TAOK1 / Fold change vs veh, TAOK1 / RFU, ACBD3 / Fold change vs veh, ACBD3 / RFU, TMA16 / Fold change vs veh, TMA16 / RFU, RWDD3 / Fold change vs veh, RWDD3 / RFU, BCAT1 / Fold change vs veh, BCAT1 / RFU, EDEM3 / Fold change vs veh, EDEM3 / RFU, TMEM33 / Fold change vs veh, TMEM33 / RFU, WDR75 / Fold change vs veh, WDR75 / RFU, AHCTF1 / Fold change vs veh, AHCTF1 / RFU, TFRC / Fold change vs veh, TFRC / RFU, ZDHHC17 / Fold change vs veh, ZDHHC17 / RFU, NOM1 / Fold change vs veh, NOM1 / RFU, ARL8B / Fold change vs veh, ARL8B / RFU, ZBTB11 / Fold change vs veh, ZBTB11 / RFU, TAMM41 / Fold change vs veh, TAMM41 / RFU, KIAA1704 /// LOC100996395 / Fold change vs veh, KIAA1704 /// LOC100996395 / RFU, ING1 / Fold change vs veh, ING1 / RFU, TRMT61B / Fold change vs veh, TRMT61B / RFU, FUBP3 / Fold change vs veh, FUBP3 / RFU, TP53 / Fold change vs veh, TP53 / RFU, TNKS2 / Fold change vs veh, TNKS2 / RFU, ZFP14 / Fold change vs veh, ZFP14 / RFU, ACTR2 / Fold change vs veh, ACTR2 / RFU, PPP3R1 / Fold change vs veh, PPP3R1 / RFU, PIK3R1 / Fold change vs veh, PIK3R1 / RFU, HNRNPA1 / Fold change vs veh, HNRNPA1 / RFU, RNF170 / Fold change vs veh, RNF170 / RFU, ZNF28 / Fold change vs veh, ZNF28 / RFU, RNGTT / Fold change vs veh, RNGTT / RFU, OGT / Fold change vs veh, OGT / RFU, BRD1 / Fold change vs veh, BRD1 / RFU, MARS / Fold change vs veh, MARS / RFU, ZNF655 / Fold change vs veh, ZNF655 / RFU, FAHD1 / Fold change vs veh, FAHD1 / RFU, BDP1 / Fold change vs veh, BDP1 / RFU, LRRCC1 / Fold change vs veh, LRRCC1 / RFU, ARID1A / Fold change vs veh, ARID1A / RFU, ZNF146 / Fold change vs veh, ZNF146 / RFU, ZNF330 / Fold change vs veh, ZNF330 / RFU, GPN3 / Fold change vs veh, GPN3 / RFU, C9orf123 / Fold change vs veh, C9orf123 / RFU, N4BP2L2 / Fold change vs veh, N4BP2L2 / RFU, ARFIP1 / Fold change vs veh, ARFIP1 / RFU, FAM179B / Fold change vs veh, FAM179B / RFU, BCL10 / Fold change vs veh, BCL10 / RFU, UHRF1BP1L / Fold change vs veh, UHRF1BP1L / RFU, BET1 / Fold change vs veh, BET1 / RFU, CNOT2 / Fold change vs veh, CNOT2 / RFU, ZNF268 / Fold change vs veh, ZNF268 / Fold change vs veh, ZNF507 / RFU, DGCR2 / Fold change vs veh, DGCR2 / RFU, WDSUB1 / Fold change vs veh, WDSUB1 / Fold change vs veh, HSP90B1 /// MIR3652 / RFU, ADSS / Fold change vs veh, ADSS / RFU, GK / Fold change vs veh, GK / RFU, ZNF148 / Fold change vs veh, ZNF148 / RFU, TAF9 / Fold change vs veh, TAF9 / RFU, SLC1A5 / Fold change vs veh, SLC1A5 / RFU, SLMO2 / Fold change vs veh, SLMO2 / RFU, ABCC4 / Fold change vs veh, ABCC4 / RFU, LOC101060439 /// RAP1B / Fold change vs veh, LOC101060439 /// RAP1B / RFU, RFX7 / Fold change vs veh, RFX7 / RFU, GTPBP10 / Fold change vs veh, GTPBP10 / RFU, CNEP1R1 / Fold change vs veh, CNEP1R1 / RFU, BIVM-ERCC5 /// ERCC5 / Fold change vs veh, BIVM-ERCC5 /// ERCC5 / RFU, ILF3 / Fold change vs veh, ILF3 / RFU 11762660_at / Fold change /veh 11762660_at / RFU VCAN (11757783_s_at) / Fold change /veh VCAN (11757783_s_at) / RFU DDX43 (11728927_at) / Fold change /veh DDX43 (11728927_at) / RFU KRT8 (11758188_x_at) / Fold change /veh KRT8 (11758188_x_at) / RFU NKD1 (11759106_at) / Fold change /veh NKD1 (11759106_at) / RFU SRD5A1 (11742802_a_at) / Fold change /veh SRD5A1 (11742802_a_at) / RFU TPSAB1 /// TPSB2 (11721975_s_at) / Fold change /veh TPSAB1 /// TPSB2 (11721975_s_at) / RFU GSTM3 (11746129_a_at) / Fold change /veh GSTM3 (11746129_a_at) / RFU IL23R (11737362_x_at) / Fold change /veh IL23R (11737362_x_at) / RFU TMEM51 (11727254_a_at) / Fold change /veh TMEM51 (11727254_a_at) / RFU PIWIL2 (11732686_x_at) / Fold change /veh PIWIL2 (11732686_x_at) / RFU ORM1 (11744905_x_at) / Fold change /veh ORM1 (11744905_x_at) / RFU CCDC152 (11743942_at) / Fold change /veh CCDC152 (11743942_at) / RFU ECM1 (11717891_a_at) / Fold change /veh ECM1 (11717891_a_at) / RFU IL23R (11748794_a_at) / Fold change /veh IL23R (11748794_a_at) / RFU TNFAIP8L3 (11732012_x_at) / Fold change /veh TNFAIP8L3 (11732012_x_at) / RFU MBOAT4 (11741988_at) / Fold change /veh MBOAT4 (11741988_at) / RFU 11764193_at / Fold change /veh 11764193_at / RFU TMEM53 (11763286_at) / Fold change /veh TMEM53 (11763286_at) / RFU MAGEB2 (11727129_at) / Fold change /veh MAGEB2 (11727129_at) / RFU TMEM200A (11744735_a_at) / Fold change /veh TMEM200A (11744735_a_at) / RFU CCDC152 (11751479_a_at) / Fold change /veh CCDC152 (11751479_a_at) / RFU FAM211A (11726209_a_at) / Fold change /veh FAM211A (11726209_a_at) / RFU RGS16 (11746705_a_at) / Fold change /veh RGS16 (11746705_a_at) / RFU VCAN (11755009_s_at) / Fold change /veh VCAN (11755009_s_at) / RFU RHOB (11743442_s_at) / Fold change /veh RHOB (11743442_s_at) / RFU RGS16 (11720943_a_at) / Fold change /veh RGS16 (11720943_a_at) / RFU RGS16 (11720944_at) / Fold change /veh RGS16 (11720944_at) / RFU, VPS4B / Fold change vs veh, VPS4B / RFU, CREB1 / Fold change vs veh, CREB1 / RFU, DNAJC13 / Fold change vs veh, DNAJC13 / RFU, GNAQ / Fold change vs veh, GNAQ / RFU, CDK5R1 / Fold change vs veh, CDK5R1 / RFU, ZRANB3 / Fold change vs veh, ZRANB3 / RFU, CUL4A / Fold change vs veh, CUL4A / RFU, CCNY / Fold change vs veh, CCNY / RFU, UFL1 / Fold change vs veh, UFL1 / RFU, COG3 / Fold change vs veh, COG3 / RFU, DIAPH2 / Fold change vs veh, DIAPH2 / RFU, SKA2 / Fold change vs veh, SKA2 / RFU, AFF3 / Fold change vs veh, AFF3 / RFU, LMF1 / Fold change vs veh, LMF1 / RFU, IPO11 / Fold change vs veh, IPO11 / RFU, DFFB / Fold change vs veh, DFFB / RFU, FOXP1 / Fold change vs veh, FOXP1 / RFU, CARD8 / Fold change vs veh, CARD8 / RFU, STRN3 / Fold change vs veh, STRN3 / RFU, ADK / Fold change vs veh, ADK / RFU, RASSF2 / Fold change vs veh, RASSF2 / RFU, WIPF1 / Fold change vs veh, WIPF1 / RFU, LARP1B / Fold change vs veh, LARP1B / RFU, RASA1 / Fold change vs veh, RASA1 / RFU, RB1 / Fold change vs veh, RB1 / RFU, PPFIA1 / Fold change vs veh, PPFIA1 / RFU, MAT2A / Fold change vs veh, MAT2A / RFU, CCT5 / Fold change vs veh, CCT5 / RFU, WDR92 / Fold change vs veh, WDR92 / RFU, CUX1 / Fold change vs veh, CUX1 / RFU, TTC7A / Fold change vs veh, TTC7A / RFU, TMEM135 / Fold change vs veh, TMEM135 / RFU, DEPTOR / Fold change vs veh, DEPTOR / RFU, CPM / Fold change vs veh, CPM / RFU, DNAJB6 / Fold change vs veh, DNAJB6 / RFU, CACNA2D3 / Fold change vs veh, CACNA2D3 / RFU, DTX4 / Fold change vs veh, DTX4 / RFU, TFCP2 / Fold change vs veh, TFCP2 / RFU, GMCL1 /// GMCL1P1 / Fold change vs veh, GMCL1 /// GMCL1P1 / RFU, AEBP2 / Fold change vs veh, AEBP2 / RFU, SNHG1 /// SNORD22 /// SNORD25 /// SNORD26 /// SNORD27 /// SNORD28 /// SNORD29 /// SNORD31 / Fold change vs veh, SNHG1 /// SNORD22 /// SNORD25 /// SNORD26 /// SNORD27 /// SNORD28 /// SNORD29 /// SNORD31 / Fold change (Aza/veh), C12orf56 (ProbeSet 11735607_a_at) / Fold change (ACY-1035/veh), C12orf56 (ProbeSet 11735607_a_at) / Fold change (Aza/veh), FGFR1OP (ProbeSet 11751329_s_at) / Fold change (ACY-1035/veh), FGFR1OP (ProbeSet 11751329_s_at) / Fold change (Aza/veh), VPS36 (ProbeSet 11739960_a_at) / Fold change (ACY-1035/veh), VPS36 (ProbeSet 11739960_a_at) / RFU SYPL1 (11715823_x_at) / Fold change /veh SYPL1 (11715823_x_at) / RFU IGFBP7 (11715501_s_at) / Fold change /veh IGFBP7 (11715501_s_at) / RFU REEP3 (11722064_at) / Fold change /veh REEP3 (11722064_at) / RFU IGLL1 (11728026_x_at) / Fold change /veh IGLL1 (11728026_x_at): dose or concentration left out as unconfirmed
Settings: ProbeSet 11743362_s_at; LIST B

Nc1ccc(-c2cccs2)cc1NC(=O)c1ccc2c(c1)cc(C1CC1)n2CCN1CCOCC1 [ACY-1035]
Fold change vs veh, ADSS: 0.95
